Measured values reported in patent publication US20260078130A1, “NAMPT MODULATORS, PREPARATIONS, AND USES THEREOF” (SIRONAX LTD., priority 2022, published 2026).
Like-named read-outs stand apart in the source and are kept apart here.

Assays:
[1] = target: T1, human enzyme NAMPT (full length) (Homo sapiens, UniProt P43490); test: NMN fluorescence biochemical assay (stimulation of NMN synthesis by NAMPT); details: for EC50: concentration giving half-maximal activation, read-out: Enzymatic EC50; for Enzymatic Emax: fold change of maximal activation compared to DMSO
T1 construct: human enzyme NAMPT (full length)
T1 sequence (P43490 whole entry): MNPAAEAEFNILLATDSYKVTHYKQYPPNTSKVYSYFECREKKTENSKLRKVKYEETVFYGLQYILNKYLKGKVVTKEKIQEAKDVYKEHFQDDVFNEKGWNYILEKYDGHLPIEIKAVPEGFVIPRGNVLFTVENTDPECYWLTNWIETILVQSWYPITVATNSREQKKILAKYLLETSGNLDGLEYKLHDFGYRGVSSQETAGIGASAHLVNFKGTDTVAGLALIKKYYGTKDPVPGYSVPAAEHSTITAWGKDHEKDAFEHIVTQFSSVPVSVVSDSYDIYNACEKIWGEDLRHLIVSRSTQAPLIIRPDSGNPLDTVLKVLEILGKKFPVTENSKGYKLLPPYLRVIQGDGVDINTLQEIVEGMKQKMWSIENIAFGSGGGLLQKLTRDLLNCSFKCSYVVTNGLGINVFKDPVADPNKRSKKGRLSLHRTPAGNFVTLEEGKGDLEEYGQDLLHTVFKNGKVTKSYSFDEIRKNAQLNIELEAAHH
In short: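 Full-length human NAMPT (100 nM) was preincubated 15 min at 37 °C with compound in 50 mM Tris-HCl pH 7.5, 10 mM MgCl2, 2 mM DTT, then reacted 1 h at 37 °C with 50 μM NAM, 100 μM PRPP, 4 mM ATP (stated solution concentrations). NMN was derivatised with acetophenone/KOH then formic acid and read at Ex/Em 382/445 nm; EC50 and Emax (fold over DMSO) reported.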

[2] = system: endogenous NAMPT in U2OS cells; test: Cellular NAD+ modulation assay (NAD/NADH-Glo, U2OS cells); format: cell-based; details: Homo sapiens; for maximal fold induction: read-out: Cellular Emax
Description: Certain compounds described herein were also assayed for their ability to stimulate the endogenous NAMPT in a native cellular environment in a cellular NAD^+ modulation assay. U2OS cells were grown in McCoy's 5A medium with 10% fetal bovine serum, in a humidified incubator with an atmosphere of 95% air and 5% CO2 at 37° C. The assays were initiated by plating 30 μL of U2OS cells in a culture medium with 10% fetal bovine serum, at a density of 3000 cells per well in a Corning® 384-well White/Clear Bottom Polystyrene Microplate. The plates were incubated in 37T incubators for a period of 16 hours. Test compounds with a series of concentrations in DMSO were added to the plates in a volume of 150 nL using Echo Liquid handlers. The plates are then incubated for 24 hours. The medium was removed from the wells, then 10 μL PBS was added to each well. To each well of cells in 10 μL of PBS, 10 μL of base solution with 1% DTAB was added. The plate was briefly mixed on a plate shaker to ensure homogeneity and cell lysis (5 mins). 10p L of 0.4N HCl was added per well. The plate was coved, and all samples were incubated for 15 minutes at 60° C. Then the plate was equilibrated for 10 minutes at room temperature. 10 μL of 0.5M Trizma® base was added to each well of acid-treated cells to neutralize the acid. Finally, 30 μL of NAD/NADH-Glo™ Detection Reagent was added. The plate was gently shaken to mix the samples. The plate was incubated for 40 minutes at room temperature. Luminescence was recorded using a luminometer. The potency measurements for the test compounds were quantified and represented as EC50 (concentration of a compound that gives half-maximal activation) and Emax (fold change of a compound's maximal activation compared to DMSO).

[3] = NMN fluorescence assay, purified human NAMPT 100 nM
[4] = 24 hours incubation, cellular NAD+
[5] = NMN synthesis by purified human NAMPT (100 nM)
[6] = 24 hours incubation with compound

Row | EC50 [1, 3] [nM] | Enzymatic Emax [1] | EC50 [2, 4] [nM] | EC50 [1, 5] [nM] | EC50 [2, 6] [nM] | Structure (SMILES) | maximal fold induction [2, 4] | maximal fold induction [2, 6]
1 | < 500 | A (A>3) | < 500 |  |  | N#Cc1cncc(C#N)c1CC1c2ccccc2C(=O)N1Cc1ccc2[nH]nnc2c1 (stereo not shown) [Compound 351, 4-((2-((1H-benzo[d][1,2,3]triazol-5-yl)methyl)-3-oxoisoindolin-1-yl)methyl)pyridine-3,5-dicarbonitrile] | > 1.5 | 
2 |  | A (A>3) |  | 500 to 5000 | < 500 | N#Cc1cccnc1CC1c2ccccc2C(=O)N1Cc1ccc2[nH]c(=O)oc2c1 (stereo not shown) [Compound 257, 2-((3-oxo-2-((2-oxo-2,3-dihydrobenzo[d]oxazol-6-yl)methyl)isoindolin-1-yl)methyl) nicotinonitrile] |  | > 1.5
3 | < 500 | A (A>3) | < 500 |  |  | Cc1ccnc(C(C)(C)O)c1CC1c2ccccc2C(=O)N1Cc1ccc2[nH]nnc2c1 (stereo not shown) [Compound 375, 2-((1H-benzo[d][1,2,3]triazol-5-yl)methyl)-3-((2-(2-hydroxypropan-2-yl)-4-methylpyridin-3-yl)methyl)isoindolin-1-one] | > 1.5 | 
4 | < 500 | A (A>3) | < 500 |  |  | Cn1ncc(Cl)c1CC1(C)c2cc(Br)ccc2C(=O)N1Cc1ccc2[nH]c(=O)oc2c1 (stereo not shown) [Compound 419, 6-((6-bromo-1-((4-chloro-1-methyl-1H-pyrazol-5-yl)methyl)-1-methyl-3-oxoisoindolin-2-yl)methyl)benzo[d]oxazol-2(3H)-one] | > 1.5 | 
5 |  | A (A>3) |  | 500 to 5000 | 500 to 5000 | Cc1scnc1CC1c2ccccc2C(=O)N1Cc1ccc2[nH]c(=O)oc2c1 (stereo not shown) [Compound 217, 6-((1-((5-methylthiazol-4-yl)methyl)-3-oxoisoindolin-2-yl)methyl)benzo[d]oxazol-2(3H)-one] |  | > 1.5
6 | 500 to 5000 | B (3≥B>2) | < 500 |  |  | O=C1NCC2(CC(CN3C(=O)c4ccccc4C3Cc3c(Cl)nc4sccn34)C2)O1 (stereo not shown) [Compound 469, 2-((1-((6-chloroimidazo[2,1-b]thiazol-5-yl)methyl)-3-oxoisoindolin-2-yl)methyl)-5-oxa-7-azaspiro[3.4]octan-6-one] | > 1.5 | 
7 | < 500 | B (3≥B>2) | < 500 |  |  | O=C1c2ccccc2C(Cc2ncccc2Br)N1C/C=C/c1c[nH]nn1 (stereo not shown) [Compound 328, (E)-2-(3-(1H-1,2,3-triazol-4-yl)allyl)-3-((3-bromopyridin-2-yl)methyl)isoindolin-1-one] | > 1.5 | 
8 | < 500 | B (3≥B>2) | < 500 |  |  | O=C1c2ccccc2C(Cc2ncsc2Cl)N1Cc1ccc2[nH]nnc2c1 (stereo not shown) [Compound 418, 2-((1H-benzo[d][1,2,3]triazol-5-yl)methyl)-3-((5-chlorothiazol-4-yl)methyl)isoindolin-1-one] | > 1.5 | 
9 |  | B (3≥B>2) |  | 500 to 5000 | 500 to 5000 | N#Cc1ccccc1CC1c2ccccc2C(=O)N1Cc1cc(F)c(O)c(F)c1 (stereo not shown) [Compound 197, 2-((2-(3,5-difluoro-4-hydroxybenzyl)-3-oxoisoindolin-1-yl)methyl)benzonitrile] |  | > 1.5
10 | 500 to 5000 | B (3≥B>2) | < 500 |  |  | Cc1ncnc(C#N)c1CC1c2ccccc2C(=O)N1CC1CC2(CNC(=O)O2)C1 (stereo not shown) [Compound 491, 6-methyl-5-((3-oxo-2-((6-oxo-5-oxa-7-azaspiro[3.4]octan-2-yl)methyl)isoindolin-1-yl)methyl)pyrimidine-4-carbonitrile] | > 1.5 | 
11 |  | A (A>3) |  | < 500 | < 500 | N#Cc1cncc(C#N)c1CC1c2ccccc2C(=O)N1Cc1ccc2[nH]c(=O)oc2c1 (stereo not shown) [Compound 283, 4-((3-oxo-2-((2-oxo-2,3-dihydrobenzo[d]oxazol-6-yl)methyl)isoindolin-1-yl)methyl) pyridine-3,5-dicarbonitrile] |  | 1.2 to 1.5
12 |  | A (A>3) |  | < 500 | 500 to 5000 | O=C1c2ccccc2C(Cc2ncccc2Br)N1Cc1ccc2[nH]c(=O)oc2c1F (stereo not shown) [Compound 224, 6-((1-((3-bromopyridin-2-yl)methyl)-3-oxoisoindolin-2-yl)methyl)-7-fluorobenzo[d]oxazol-2(3H)-one] |  | > 1.5
13 |  | A (A>3) |  | < 500 | < 500 | Cc1ccnc(C#N)c1CC1c2ccccc2C(=O)N1Cc1ccc2[nH]nnc2c1 (stereo not shown) [Compound 284, 3-((2-((1H-benzo[d][1,2,3]triazol-5-yl)methyl)-3-oxoisoindolin-1-yl)methyl)-4-methylpicolinonitrile] |  | 1.2 to 1.5
14 | 500 to 5000 | B (3≥B>2) | < 500 |  |  | Cn1ncc(Cl)c1CC1c2cc(F)ccc2C(=O)N1CC1CC2(CNC(=O)O2)C1 (stereo not shown) [Compound 486, 2-((3-((4-chloro-1-methyl-1H-pyrazol-5-yl)methyl)-5-fluoro-1-oxoisoindolin-2-yl)methyl)-5-oxa-7-azaspiro[3.4]octan-6-one] | > 1.5 | 
15 | ≥ 5000 | C (2≥C) | 500 to 5000 |  |  | COc1ncc(CN2C(=O)c3ccccc3C2Cc2c(Cl)cnn2C)o1 (stereo not shown) [Compound 603, 3-((4-chloro-1-methyl-1H-pyrazol-5-yl)methyl)-2-((2-methoxyoxazol-5-yl)methyl)isoindolin-1-one] | 1.2 to 1.5 | 
16 | ≥ 5000 | C (2≥C) | 5000 to 50000 |  |  | Cn1ncc(Cl)c1CC1c2ccccc2C(C)(C)N1CC1CC(C(N)=O)C1 (stereo not shown) [Compound 607, 3-((3-((4-chloro-1-methyl-1H-pyrazol-5-yl)methyl)-1,1-dimethylisoindolin-2-yl)methyl)cyclobutane-1-carboxamide] | 1.2 to 1.5 | 
17 | 500 to 5000 | B (3≥B>2) | < 500 |  |  | CCn1ncc(Cl)c1CC1c2ccccc2C(=O)N1CC1CC2(CNC(=O)O2)C1 (stereo not shown) [Compound 465, 2-((1-((4-chloro-1-ethyl-1H-pyrazol-5-yl)methyl)-3-oxoisoindolin-2-yl)methyl)-5-oxa-7-azaspiro[3.4]octan-6-one] | > 1.5 | 
18 | 500 to 5000 | B (3≥B>2) | < 500 |  |  | COc1ccc(CN2C(=O)c3ccccc3C2Cc2c(Cl)cnn2C)cc1 (stereo not shown) [Compound 518, 3-((4-chloro-1-methyl-1H-pyrazol-5-yl)methyl)-2-(4-methoxybenzyl)isoindolin-1-one] | 1.2 to 1.5 | 
19 |  | A (A>3) |  | < 500 | < 500 | N#Cc1ccc2c(c1)C(Cc1c(Cl)ccnc1C#N)N(Cc1ccc3[nH]c(=O)oc3c1)C2=O (stereo not shown) [Compound 276, 3-((4-chloro-2-cyanopyridin-3-yl)methyl)-1-oxo-2-((2-oxo-2,3-dihydrobenzo[d]oxazol-6-yl)methyl)isoindoline-5-carbonitrile] |  | > 1.5
20 | ≥ 5000 | A (A>3) | 500 to 5000 |  |  | COc1ccc(CN2C(=O)c3ccc(Br)cc3C2Cc2c(Cl)cnn2C)cn1 (stereo not shown) [Compound 622, 5-bromo-3-((4-chloro-1-methyl-1H-pyrazol-5-yl)methyl)-2-((6-methoxypyridin-3-yl)methyl)isoindolin-1-one] | > 1.5 | 
21 |  | A (A>3) |  | 500 to 5000 | < 500 | N#Cc1ccncc1CC1c2ccccc2C(=O)N1Cc1ccc2[nH]c(=O)oc2c1 (stereo not shown) [Compound 203, 3-((3-oxo-2-((2-oxo-2,3-dihydrobenzo[d]oxazol-6-yl)methyl)isoindolin-1-yl)methyl) isonicotinonitrile] |  | > 1.5
22 |  | A (A>3) |  | 500 to 5000 | 500 to 5000 | O=C1c2ccc(N3CCOCC3)cc2C(Cc2ccccc2)N1Cc1ccc2[nH]c(=O)oc2c1 (stereo not shown) [Compound 97, 6-((3-benzyl-5-morpholino-1-oxoisoindolin-2-yl)methyl)benzo[d]oxazol-2(3H)-one] |  | > 1.5
